Data on 26 compounds can be found in US8575167B2, “Spiro compounds having stearoyl-CoA desaturase action” (Takeda Pharmaceutical Company Limited, priority 2007, dated 2013).

The target of this test is T1, SCD (Rattus norvegicus, UniProt P07308).
T1 construct: an enzyme reaction using rat liver microsome (20 μg) was performed for 15 min; from tissue; host or cells: rat liver microsome fraction
T1 sequence (P07308 1-358): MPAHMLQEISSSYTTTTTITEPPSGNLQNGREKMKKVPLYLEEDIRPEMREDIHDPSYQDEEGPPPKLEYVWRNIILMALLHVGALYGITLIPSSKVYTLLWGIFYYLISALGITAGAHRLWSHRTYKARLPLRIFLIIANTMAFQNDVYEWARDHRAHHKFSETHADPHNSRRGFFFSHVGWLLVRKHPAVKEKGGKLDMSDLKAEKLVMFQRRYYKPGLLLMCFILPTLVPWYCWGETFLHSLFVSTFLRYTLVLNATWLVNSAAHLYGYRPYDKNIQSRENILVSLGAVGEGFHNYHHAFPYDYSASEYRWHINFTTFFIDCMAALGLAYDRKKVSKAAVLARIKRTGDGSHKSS
The experiment in a line: Measurement of SCD inhibitory activity using microsome (TLC detection system). In kind it is biochemical. The note with it: rat liver microsome (20 μg), 15 min, [14C] stearoyl-CoA, test compound (10 mM) diluted to 3/1000 with 3× buffer, 10 μL in 30 μL reaction; for inhibition at 10 µM: read-out: SCD activity inhibitory rate (%). The protocol:
(Test Method: Measurement of SCD Inhibitory Activity Using Microsome (TLC Detection System))
A test compound (10 mM) diluted with DMSO in advance was secondarily diluted to 3/1000 with 3× buffer (300 mmol/L NaH2PO4 [pH 7.4], 450 mM KCl, 30 mM NaF, 9 mM MgCl2, 4.5 mM glutathione [reduced form], 0.3% BSA [fatty acid free, SIGMA]). The test compound (10 μL) diluted with the assay buffer was dispensed to a PP 96-deep well block, and a microsome fraction (10 μL) diluted with a microsome buffer was added thereto. The enzyme reaction was started by the addition of 10 μL of [^14C] stearoyl-CoA (American Radiolabeled Chemicals [ARC], Inc.) diluted to 10 μCi/mL with 9 mmol/L NADH. For evaluation of the compound, an enzyme reaction using rat liver microsome (20 μg) was performed for 15 min. The reaction was quenched by the addition of 10 μL of 2.5N NaOH, a plate seal was applied, and the reaction mixture was incubated overnight in a dry heater set to 65° C. to allow saponification. Solvent extraction of fatty acid was based on the Bligh&Dyer method (1). Formic acid:methanol:chloroform (1:6:3) (200 μL) was added, the state of single layer was maintained, the mixture was sufficiently stirred, and pure water (120 μL) was added to allow separation into two layers. The lower chloroform layer (10 μL) was spotted on reversed-phase TLC plate (RP-18, 1154230001, Merck Japan, Ltd.) and developed with acetonitrile:pure water:acetic:acid (95:4.5:0.5). The TLC plate was dried and transferred onto an Imaging Plate (Fuji Photo Film Co., Ltd.) for not less than 5 hr. For detection, BAS-5000 (Fuji Photo Film Co., Ltd) was used and the obtained spot images were converted to numerical values using Multi Gauge Ver2.3 (Fuji Photo Film Co., Ltd), based on which the SCD activity inhibitory rate (%) was determined.
On the technique in general: Liver microsomes are vesicles of endoplasmic reticulum, rich in cytochrome P450 enzymes.

For the compound `O=C(CNC(=O)c1ccc(N2CCC3(C=Cc4ccccc43)CC2)nn1)c1ccccc1` [Example 55, N-(2-oxo-2-phenylethyl)-6-(1′H-spiro[indene-1,4′-piperidin]-1′-yl)pyridazine-3-carboxamide], the inhibition at 10 µM worked out at 99%.

Regarding `OCc1nc(-c2ccc(N3CCC4(CC3)COc3ccccc34)nn2)no1` [Example 148, {3-[6-(1′H-spiro[1-benzofuran-3,4′-piperidin]-1′-yl)pyridazin-3-yl]-1,2,4-oxadiazol-5-yl}methanol], the inhibition at 10 µM amounted to 100%. As to `Cc1nsc(-c2ccc(N3CCC4(COc5ccccc54)C3)nn2)n1` (centres unmarked) [Example 50, 1′-[6-(3-methyl-1,2,4-thiadiazol-5-yl)pyridazin-3-yl]spiro[1-benzofuran-3,3′-pyrrolidine]], the inhibition at 10 µM is 99%. For the compound `C1=CC2(CCN(c3ccc(-c4ncns4)nn3)CC2)c2ccccc21` [Example 11, 1′-[6-(1,2,4-thiadiazol-5-yl)pyridazin-3-yl]spiro[indene-1,4′-piperidine]], the inhibition at 10 µM amounted to 93%.

For the compound `Cc1noc(-c2ccc(N3CCC4(CC3)CN(c3ccc(F)cc3)C(=O)O4)nn2)n1` [Example 47, 3-(4-fluorophenyl)-8-[6-(3-methyl-1,2,4-oxadiazol-5-yl)pyridazin-3-yl]-1-oxa-3,8-diazaspiro[4.5]decan-2-one], the inhibition at 10 µM came to 93%. `Cc1noc(-c2ccc(N3CCC4(COc5ccccc54)C3)nn2)n1` (centres unmarked) [Example 179 (long retention time), 1′-[6-(3-methyl-1,2,4-oxadiazol-5-yl)pyridazin-3-yl]spiro[1-benzofuran-3,3′-pyrrolidine]]: the “SCD activity inhibitory rate (%)” value was determined as 96%. In the case of `Cc1noc(-c2ccc(N3CCC4(COc5ccccc54)C3)nn2)n1` (centres unmarked) [Example 51, 1′-[6-(3-methyl-1,2,4-oxadiazol-5-yl)pyridazin-3-yl]spiro[1-benzofuran-3,3′-pyrrolidine]], the inhibition at 10 µM is 97%. Take `Cc1noc(-c2ccc(N3CCC4(COc5ccccc54)C3)nn2)n1` (centres unmarked) [Example 179 (short retention time), 1′-[6-(3-methyl-1,2,4-oxadiazol-5-yl)pyridazin-3-yl]spiro[1-benzofuran-3,3′-pyrrolidine]]: the “SCD activity inhibitory rate (%)” value is 100%. As for `Cc1nsc(-c2ccc(N3CCC4(C=Cc5ccccc5O4)CC3)nn2)n1` [Example 20, 1′-[6-(3-methyl-1,2,4-thiadiazol-5-yl)pyridazin-3-yl]spiro[chromene-2,4′-piperidine]], the inhibition at 10 µM came to 98%. Turning to `O=C(NCC(O)Cc1ccccc1)c1ccc(N2CCC3(C=Cc4ccccc43)CC2)nn1` (centres unmarked) [Example 86, N-(2-hydroxy-3-phenylpropyl)-6-(1′H-spiro[indene-1,4′-piperidin]-1′-yl)pyridazine-3-carboxamide], the inhibition at 10 µM was 100%. As for `Cc1noc(-c2ccc(N3CCC4(C3)OCc3ccccc34)nn2)n1` (centres unmarked) [Example 177, 1′-[6-(3-methyl-1,2,4-oxadiazol-5-yl)pyridazin-3-yl]-3H-spiro[2-benzofuran-1,3′-pyrrolidine]], the “SCD activity inhibitory rate (%)” value amounted to 99%.

With `Cc1noc(-c2ccc(N3CCC4(C3)C(=O)N(C)c3ccccc34)nn2)n1` (centres unmarked) [Example 159, 1-methyl-1′-[6-(3-methyl-1,2,4-oxadiazol-5-yl)pyridazin-3-yl]spiro[indole-3,3′-pyrrolidin]-2(1H)-one], the inhibition at 10 µM worked out at 99%.

As for `OCc1noc(-c2ccc(N3CCC4(COc5ccccc54)C3)nn2)n1` (centres unmarked) [Example 157, {5-[6-(1′H-spiro[1-benzofuran-3,3′-pyrrolidin]-1′-yl)pyridazin-3-yl]-1,2,4-oxadiazol-3-yl}methanol], the inhibition at 10 µM stood at 100%. As for `CC1CSC(c2ccc(N3CCC4(CC3)COc3ccccc34)nn2)=N1` (centres unmarked) [Example 146, 1′-[6-(4-methyl-4,5-dihydro-1,3-thiazol-2-yl)pyridazin-3-yl]spiro[1-benzofuran-3,4′-piperidine]], the inhibition at 10 µM was determined as 97%.

In the case of `OCc1noc(-c2ccc(N3CCC4(CC3)COc3ccccc34)nn2)n1` [Example 143, {5-[6-(1′H-spiro[1-benzofuran-3,4′-piperidin]-1′-yl)pyridazin-3-yl]-1,2,4-oxadiazol-3-yl}methanol], the inhibition at 10 µM came out at 100%. As to `Cc1nsc(-c2ccc(N3CCC4(CC3)CN(c3cccc(F)c3)C(=O)O4)nn2)n1` [Example 29, 3-(3-fluorophenyl)-8-[6-(3-methyl-1,2,4-thiadiazol-5-yl)pyridazin-3-yl]-1-oxa-3,8-diazaspiro[4.5]decan-2-one], the inhibition at 10 µM was determined as 99%.

As to `O=C(N[C@H]1C[C@@H]1c1ccccc1)c1ccc(N2CCC3(C=Cc4ccccc43)CC2)nn1` [Example 126, N-[(1S,2R)-2-phenylcyclopropyl]-6-(1′H-spiro[indene-1,4′-piperidin]-1′-yl)pyridazine-3-carboxamide], the inhibition at 10 µM came out at 98%. Consider `Cc1nsc(-c2ccc(N3CCC4(CC3)NC(=O)c3ccccc3N4)nn2)n1` [Example 6, 1-[6-(3-methyl-1,2,4-thiadiazol-5-yl)pyridazin-3-yl]-1′H-spiro[piperidine-4,2′-quinazolin]-4′(3′H)-one], for which the inhibition at 10 µM came out at 95%. Take `Cc1nsc(-c2ccc(N3CCC4(CC3)CN(c3ccccc3)C(=O)CO4)nn2)n1` [Example 32, 9-[6-(3-methyl-1,2,4-thiadiazol-5-yl)pyridazin-3-yl]-4-phenyl-1-oxa-4,9-diazaspiro[5.5]undecan-3-one]: the inhibition at 10 µM was 94%.

As to `O=C(NCC(O)c1ccccc1)c1ccc(N2CCC3(C=Cc4ccccc43)CC2)nn1` (centres unmarked) [Example 60, N-(2-hydroxy-2-phenylethyl)-6-(1′H-spiro[indene-1,4′-piperidin]-1′-yl)pyridazine-3-carboxamide], the inhibition at 10 µM amounted to 98%. Consider `Cc1noc(-c2ccc(N3CCC4(C3)OCc3ccccc34)nn2)n1` (centres unmarked) [Example 178, 1′-[6-(3-methyl-1,2,4-oxadiazol-5-yl)pyridazin-3-yl]-3H-spiro[2-benzofuran-1,3′-pyrrolidine]], for which the “SCD activity inhibitory rate (%)” value was found to be 97%. For `O=C(NCCc1cccnc1)c1ccc(N2CCC3(C=Cc4ccccc43)CC2)nn1` [Example 74, N-(2-(pyridin-3-yl)ethyl)-6-(1′H-spiro[indene-1,4′-piperidin]-1′-yl)pyridazine-3-carboxamide], the inhibition at 10 µM is 98%. Take `Cc1nsc(-c2ccc(N3CCC4(CC3)Cc3ccccc3O4)nn2)n1` [Example 4, 1′-[6-(3-methyl-1,2,4-thiadiazol-5-yl)pyridazin-3-yl]-3H-spiro[1-benzofuran-2,4′-piperidine]]: the inhibition at 10 µM is 97%. Take `OCc1noc(-c2ccc(N3CCC4(C3)OCc3ccccc34)nn2)n1` (centres unmarked) [Example 156, {5-[6-(1′H,3H-spiro[2-benzofuran-1,3′-pyrrolidin]-1′-yl)pyridazin-3-yl]-1,2,4-oxadiazol-3-yl}methanol]: the inhibition at 10 µM was 100%. Consider `Cc1nsc(-c2ccc(N3CCC4(CC3)COc3ccccc34)nn2)n1` [Example 17, 1′-[6-(3-methyl-1,2,4-thiadiazol-5-yl)pyridazin-3-yl]spiro[1-benzofuran-3,4′-piperidine]], for which the inhibition at 10 µM came to 100%. Turning to `Cc1noc(-c2ccc(N3CCC4(Cc5ccccc5O4)C3)nn2)n1` (centres unmarked) [Example 170, 1′-[6-(3-methyl-1,2,4-oxadiazol-5-yl)pyridazin-3-yl]-3H-spiro[1-benzofuran-2,3′-pyrrolidine]], the inhibition at 10 µM is 100%.
